# Values of other authors in US20020132013A1, “Liquid cautery catheter” (priority 2001, published 2002).
# Assays:
# [1] = tested on: uterocomual tubal junction
# [2] = tested on: hemorrhagic radiation induced proctitis; settings: topical application
SMILES,"complications reported ([1]; 35 healthy, parous women)","bilateral tubal occlusion, share of study participants ([1]; 35 healthy, parous women, hysterosalpingography 4 months after the procedure) [%]",pregnancies reported in participants who demonstrated tubal occlusion ([1]; participants with tubal occlusion),efficacy in control of bleeding [2]
C=C(C#N)C(=O)OC [Methyl 2-cyanoacrylate],No complications were reported,88.2,no pregnancies reported,–
C=O [formalin],–,–,–,demonstrated the efficacy
